Reference: ChEMBL document CHEMBL4840325, “Discovery of an Unexpected 1,4-Oxazepine-Linked seco-Fluostatin Heterodimer by Inactivation of the Oxidoreductase-Encoding Gene flsP” (2021)
In brackets after ≈: the same amount, converted by molar mass. Activity calls are given as the source filed them. The rule behind the calls is not given here.

Experiments:
HepG2 = assay: Cytotoxicity against human HepG2 cells assessed as reduction in cell viability at 0.5 to 16 uM measured after 72 hrs by SRB assay; assay type: functional, cell-based; settings: dose 0.5-16 µM
SF-268 = assay: Cytotoxicity against human SF-268 cells assessed as reduction in cell viability at 0.5 to 16 uM measured after 72 hrs by SRB assay; assay type: functional, cell-based; settings: dose 0.5-16 µM
Candida albicans = assay: Antifungal activity against Candida albicans SC5314 assessed as fungal growth inhibition incubated for 16 to 18 hrs by broth microdilution method; assay type: functional; settings: time 16-18 hrs
MCF7 = assay: Cytotoxicity against human MCF7 cells assessed as reduction in cell viability at 0.5 to 16 uM measured after 72 hrs by SRB assay; assay type: functional, cell-based; settings: dose 0.5-16 µM

Row | MIC (Candida albicans) [µM] | SMILES | Activity (HepG2) | Activity (SF-268) | Activity (MCF7)
1 | 100 (≈ 37.5 µg/mL) | CO[C@@H]1c2c(cc(O)c3c2C(=O)c2cccc(O)c2-3)C(=O)C(C)(Cl)[C@H]1O (stereo partly specified) | inactive | inactive | inactive
2 | 100 (≈ 46.1 µg/mL) | CC1(Nc2ccccc2C(=O)O)C(=O)c2cc(O)c3c(c2[C@@H](O)[C@@H]1O)C(=O)c1cccc(O)c1-3 (stereo partly specified) | inactive | inactive | inactive
3 | 100 (≈ 44.3 µg/mL) | C[C@]12O[C@H]1[C@H](Nc1ccccc1C(=O)O)c1c(cc(O)c3c1C(=O)c1cccc(O)c1-3)C2=O | inactive | inactive | inactive

Second part, the compound before the results:

Row | SMILES | MIC (Candida albicans) [µM] | Activity (HepG2) | Activity (SF-268) | Activity (MCF7)
4 | CC(=O)/C=C/c1c2c(c3c4c1c(O)nn4[C@@H]1c4c(cc(O)c5c4C(=O)c4cccc(O)c4-5)C(=O)[C@](C)(O3)[C@H]1O)-c1c(O)cccc1C2=O |  | inactive | inactive | inactive
5 | C[C@]12O[C@H]1[C@H](n1oc(=O)c3ccccc31)c1c(cc(O)c3c1C(=O)c1cccc(O)c1-3)C2=O |  | inactive | inactive | inactive
6 | CCC(C)C(=O)O[C@@H]1c2c(cc(O)c3c2C(=O)c2cccc(O)c2-3)C(=O)C(C)(Cl)[C@H]1O (stereo partly specified) |  | inactive | inactive | inactive
